# Measurements: patent US20220135538A1, “P300/CBP HAT INHIBITORS AND METHODS FOR THEIR USE” (Constellation Pharmaceuticals, Inc., priority 2019, published 2022)
# Key:
# [1] = molecular target: T1, p300 HAT domain (residues 1287-1666) (Homo sapiens, UniProt Q09472); assay: P300 HAT SPA assay (scintillation proximity, acetylation of biotinylated H3(1-21) peptide); format: biochemical; settings: 6 nM p300-HAT domain; average of at least 2 replicate titrations
# T1 construct: The p300 HAT domain (residues 1287-1666) was expressed; His tag (N); made in house; host or cells: Escherichia coli
# T1 sequence (Q09472 1287-1666): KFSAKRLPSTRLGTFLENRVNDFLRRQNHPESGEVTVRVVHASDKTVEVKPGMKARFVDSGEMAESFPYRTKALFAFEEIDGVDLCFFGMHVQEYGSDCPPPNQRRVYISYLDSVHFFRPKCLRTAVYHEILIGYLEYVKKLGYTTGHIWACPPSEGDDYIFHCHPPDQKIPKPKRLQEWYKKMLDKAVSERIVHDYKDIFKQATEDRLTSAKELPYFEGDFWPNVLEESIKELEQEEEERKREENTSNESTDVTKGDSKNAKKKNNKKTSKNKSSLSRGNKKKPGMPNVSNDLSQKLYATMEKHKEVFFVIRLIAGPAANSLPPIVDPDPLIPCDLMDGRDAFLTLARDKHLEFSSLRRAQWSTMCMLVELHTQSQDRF
# Procedure: The activity of the compounds described herein as p300/CBP HAT inhibitors may be readily determined using a scintillation proximity assay (SPA) methodology (Udenfriend, S.; Gerber, L.; Nelson, N. Scintillation Proximity Assay: A Sensitive and Continuous Isotopic Method for Monitoring Ligand/Receptor and Antigen/Antibody Interactions. Anal. Biochem. 1987, 161, 494-500).
# In a typical experiment the p300 HAT inhibitory activity of the compounds described herein was determined in accordance with the following experimental method.
# The p300 HAT domain (residues 1287-1666) was expressed and purified with an N-terminal His tag from Escherichia coli cells. The expressed protein was purified by Ni2+affinity, followed by anion exchange chromatography. Appropriate fractions were pooled and buffer exchanged into 20 mM Hepes pH 7.5, 150 mM NaCl, and 1 mM TCEP.
# (§1) Compounds of interest solubilized in DMSO were stamped in a Greiner black 384-well plate in a 10-point duplicate dose response using an Echo 550 (Labcyte). p300-HAT domain purified in-house (aa 1287-1666) was diluted to 6 nM in reaction buffer (50 mM Tris pH 8.0, 100 mM NaCl, 1 mM DTT, 0.069 mM Brij-35, 0.1 mM EDTA, 0.1 mg/mL BSA), combined with 4.14 μM AcCoA (Sigma-Aldrich) and 0.46 μM ^3H-AcCoA (PerkinElmer), and 12.5 μL added to each well and incubated for 30 min at RT. Reactions were initiated with 12.5 μL 2 μM biotinylated H3(1-21) peptide (New England Peptide) and run for 1 hr at RT, then quenched with 20 μL stop solution (200 mM Tris pH 8.0, 200 mM EDTA, 2M NaCl, 160 μM anacardic acid). 35 μL of the reaction volume was transferred to a 384-well streptavidin FlashPlate (PerkinElmer) using a Bravo liquid handler (Velocity 11) and incubated for 1.5 hr at RT. Plates were aspirated, washed with 95 μL wash buffer (15 mM Tris pH 8.5, 0.069 μM Brij-35), aspirated, sealed, and scintillation counts read on a Topcount (PerkinElmer). Data were analyzed in Genedata to determine inhibitor IC50 values.
# full length p300 = molecular target: T2, full length p300 (Homo sapiens, UniProt Q09472); assay: Full length p300 SPA assay; format: biochemical; settings: 6 nM purified full length p300; read-out: FL P300 IC50
# T2 construct: used 6 nM purified full length p300 (purchased from Active Motif); purchased Active Motif
# Procedure: as §1
# The full length p300 SPA assay was run following the same protocol as p300 HAT SPA assay, but used 6 nM purified full length p300 (purchased from Active Motif) in place of the purified p300-HAT domain.
# [2] = system: acetylation of chromatin at H3K18 in HCT-116 cells; assay: H3K18Ac MSD cellular assay; format: cell-based; settings: Homo sapiens, 2 hr treatment
# Procedure: Select compounds were also evaluated in a H3K18Ac MSD cellular assay that measures the ability of compounds to inhibit the acetylation of chromatin at H3K18, a process catalyzed by p300 and CBP. In a typical experiment the p300 HAT inhibitory activity inside cells of the compounds described herein was determined in accordance with the following experimental method. 20 k HCT-116 cells per well are plated in 75 μL RPMI+10% FBS media the night before treatment. Compounds plated in DMSO at 4× final concentration are resuspended in 30 μL RPMI+10% FBS, then 25 μL is combined with corresponding wells containing cells. Treated cells are incubated for 2 hr at 37° C., then lysed in 500 μL final volume and frozen at −80° C. MSD plates (Meso Scale Discovery) are coated overnight at 4° C. with 60 μL 1:500 α-total histone antibody (Millipore MAB3422) in PBS. Plates are then blocked with 5% BSA in TBST shaking at RT for 1 hr, washed, and 30 μL lysate added to each well for 2 hr shaking at RT. Plates are washed and 25 μL 1:216 α-H3K18ac antibody (CST 9675) in PBS added, then incubated for 1 hr shaking at RT. Plates are washed again, then 25 μL 1:1000 Sulfo-Tag goat α-rabbit antibody (Meso Scale Discovery R32Ab-1) in PBS is added for 1 hr shaking at RT. Plates are washed once more, then 150 μL 1× Read Buffer (MSD #R92TD-3) is added to all wells and read on MSD SECTOR Imager 2400 using the conventional read setup.
# T2 sequence (Q09472 whole entry): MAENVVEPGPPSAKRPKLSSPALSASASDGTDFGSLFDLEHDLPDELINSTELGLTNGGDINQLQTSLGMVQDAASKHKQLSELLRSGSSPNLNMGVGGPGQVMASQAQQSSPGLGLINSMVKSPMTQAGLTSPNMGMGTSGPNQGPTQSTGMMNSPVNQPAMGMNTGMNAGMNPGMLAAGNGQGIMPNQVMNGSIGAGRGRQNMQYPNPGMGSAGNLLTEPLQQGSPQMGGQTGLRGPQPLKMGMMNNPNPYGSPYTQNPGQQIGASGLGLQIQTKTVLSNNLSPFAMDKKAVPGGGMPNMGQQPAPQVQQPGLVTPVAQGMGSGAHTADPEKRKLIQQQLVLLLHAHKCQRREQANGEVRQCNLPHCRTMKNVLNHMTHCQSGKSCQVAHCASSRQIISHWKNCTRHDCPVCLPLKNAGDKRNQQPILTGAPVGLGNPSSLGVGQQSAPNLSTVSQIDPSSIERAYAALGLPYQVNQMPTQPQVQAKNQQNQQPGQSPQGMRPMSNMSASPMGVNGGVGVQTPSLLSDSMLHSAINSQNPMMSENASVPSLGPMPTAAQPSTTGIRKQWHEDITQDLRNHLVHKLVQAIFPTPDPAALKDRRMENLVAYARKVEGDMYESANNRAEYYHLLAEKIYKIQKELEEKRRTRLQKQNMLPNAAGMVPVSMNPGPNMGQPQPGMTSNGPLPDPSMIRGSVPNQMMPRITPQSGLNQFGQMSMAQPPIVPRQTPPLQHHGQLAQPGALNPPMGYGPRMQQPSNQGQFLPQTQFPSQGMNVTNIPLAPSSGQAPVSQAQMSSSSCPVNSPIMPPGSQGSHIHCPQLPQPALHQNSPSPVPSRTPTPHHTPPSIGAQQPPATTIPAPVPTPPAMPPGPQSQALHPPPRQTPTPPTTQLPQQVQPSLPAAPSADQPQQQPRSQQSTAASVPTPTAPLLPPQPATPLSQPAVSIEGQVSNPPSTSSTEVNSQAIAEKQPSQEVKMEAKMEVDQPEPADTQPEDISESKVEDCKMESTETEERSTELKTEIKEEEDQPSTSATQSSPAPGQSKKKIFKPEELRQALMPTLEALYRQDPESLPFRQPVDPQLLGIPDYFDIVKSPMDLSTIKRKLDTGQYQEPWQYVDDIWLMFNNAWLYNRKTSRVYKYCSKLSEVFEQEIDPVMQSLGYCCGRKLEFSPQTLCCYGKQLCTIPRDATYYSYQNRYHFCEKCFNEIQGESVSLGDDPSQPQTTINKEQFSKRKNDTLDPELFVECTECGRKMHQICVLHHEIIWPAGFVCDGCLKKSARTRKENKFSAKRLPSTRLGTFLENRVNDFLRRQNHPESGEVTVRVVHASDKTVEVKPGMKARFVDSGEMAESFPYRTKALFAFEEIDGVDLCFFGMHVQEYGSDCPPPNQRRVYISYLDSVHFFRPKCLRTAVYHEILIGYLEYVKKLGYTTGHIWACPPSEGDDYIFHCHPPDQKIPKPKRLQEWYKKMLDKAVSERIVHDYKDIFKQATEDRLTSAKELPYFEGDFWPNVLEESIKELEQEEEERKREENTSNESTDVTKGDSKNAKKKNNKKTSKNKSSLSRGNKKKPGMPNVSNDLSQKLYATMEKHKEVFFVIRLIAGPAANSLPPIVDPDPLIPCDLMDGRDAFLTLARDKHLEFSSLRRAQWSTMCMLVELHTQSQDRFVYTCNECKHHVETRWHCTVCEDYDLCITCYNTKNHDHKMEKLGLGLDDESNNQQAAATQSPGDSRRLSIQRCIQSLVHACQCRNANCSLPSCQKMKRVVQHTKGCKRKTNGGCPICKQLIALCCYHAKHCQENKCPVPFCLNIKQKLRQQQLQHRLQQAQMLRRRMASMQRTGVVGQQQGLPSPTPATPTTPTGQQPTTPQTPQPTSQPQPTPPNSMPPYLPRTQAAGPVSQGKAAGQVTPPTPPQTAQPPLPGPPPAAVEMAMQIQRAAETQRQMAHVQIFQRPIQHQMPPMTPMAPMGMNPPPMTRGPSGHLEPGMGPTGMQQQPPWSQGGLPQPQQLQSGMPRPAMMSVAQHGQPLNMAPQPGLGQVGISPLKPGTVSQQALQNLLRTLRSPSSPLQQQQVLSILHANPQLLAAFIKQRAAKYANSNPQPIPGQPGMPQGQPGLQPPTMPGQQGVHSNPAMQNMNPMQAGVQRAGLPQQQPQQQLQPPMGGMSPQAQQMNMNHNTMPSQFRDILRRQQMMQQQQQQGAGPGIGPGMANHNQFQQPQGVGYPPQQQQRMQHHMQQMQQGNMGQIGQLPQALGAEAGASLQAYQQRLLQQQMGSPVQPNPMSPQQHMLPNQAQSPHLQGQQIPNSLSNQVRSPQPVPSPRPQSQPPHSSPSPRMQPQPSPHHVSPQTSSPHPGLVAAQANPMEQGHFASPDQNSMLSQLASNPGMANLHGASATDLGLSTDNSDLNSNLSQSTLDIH
IC50 [1],IC50 (full length p300),EC50 [2],Compound
23.3 nM,< 3 nM,31.9 nM,"CC(=O)N1CC(Oc2ccc(NC(=O)C(NCC(C)c3ccc(C#N)cc3)c3cccc(F)c3)nc2)C1 (single isomer, unassigned) [23 Isomer 1]"
21.2 nM,< 2 nM,20 nM,"CC(=O)N1CC(Oc2ccc(NC(=O)C(NC[C@@H](C)c3ccc(C#N)cc3)c3ccccc3)nc2)C1 (single isomer, unassigned) [2 Isomer 1]"
